Assay results from ChEMBL document CHEMBL3875154 (Eur J Med Chem, 2016).

Columns and labels:
[1] = Inhibition of human PDE4 catalytic domain using FAM-3',5'-cAMP as substrate after 1 hr by fluorescence polarization assay
[2] = organism: Homo sapiens; test: Potency index, ratio of rolipram IC50 to test compound IC50 for human PDE4 catalytic domain
[3] = biological target: T1, 3',5'-cyclic-AMP phosphodiesterase 4C (Homo sapiens, UniProt Q08493); test: Inhibition of full length human PDE4C1 using FAM-3',5'-cAMP as substrate after 1 hr by fluorescence polarization assay
[4] = biological target: T2, Cone cGMP-specific 3',5'-cyclic phosphodiesterase subunit alpha' (Homo sapiens, UniProt P51160); test: Inhibition of human PDE6C using FAM-3',5'-cAMP as substrate after 1 hr by fluorescence polarization assay
[5] = biological target: T3, Dual specificity calcium/calmodulin-dependent 3',5'-cyclic nucleotide phosphodiesterase 1A (Homo sapiens, UniProt P54750); test: Inhibition of human PDE1A using FAM-3',5'-cAMP as substrate after 1 hr by fluorescence polarization assay
T3 sequence (P54750 whole entry): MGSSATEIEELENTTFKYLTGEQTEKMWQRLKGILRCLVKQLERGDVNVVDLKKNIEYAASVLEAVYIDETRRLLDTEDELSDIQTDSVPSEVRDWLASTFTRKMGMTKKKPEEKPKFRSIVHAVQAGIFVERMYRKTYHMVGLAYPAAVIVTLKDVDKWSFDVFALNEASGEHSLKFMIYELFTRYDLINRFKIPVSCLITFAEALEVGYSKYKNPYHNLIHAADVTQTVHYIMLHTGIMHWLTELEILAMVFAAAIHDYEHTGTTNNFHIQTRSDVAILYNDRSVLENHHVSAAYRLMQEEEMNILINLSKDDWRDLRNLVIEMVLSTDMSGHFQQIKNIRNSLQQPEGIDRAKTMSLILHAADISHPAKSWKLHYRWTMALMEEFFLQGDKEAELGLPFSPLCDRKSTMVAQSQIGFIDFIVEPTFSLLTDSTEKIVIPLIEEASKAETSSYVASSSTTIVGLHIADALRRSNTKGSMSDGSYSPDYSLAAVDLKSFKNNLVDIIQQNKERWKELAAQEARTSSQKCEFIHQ

[6] = biological target: T4, 3',5'-cyclic-AMP phosphodiesterase 4D (Homo sapiens, UniProt Q08499); test: Inhibition of full length human PDE4D7 at 10^4 nM using FAM-3',5'-cAMP as substrate after 1 hr by fluorescence polarization assay relative to control
T4 sequence (Q08499 whole entry): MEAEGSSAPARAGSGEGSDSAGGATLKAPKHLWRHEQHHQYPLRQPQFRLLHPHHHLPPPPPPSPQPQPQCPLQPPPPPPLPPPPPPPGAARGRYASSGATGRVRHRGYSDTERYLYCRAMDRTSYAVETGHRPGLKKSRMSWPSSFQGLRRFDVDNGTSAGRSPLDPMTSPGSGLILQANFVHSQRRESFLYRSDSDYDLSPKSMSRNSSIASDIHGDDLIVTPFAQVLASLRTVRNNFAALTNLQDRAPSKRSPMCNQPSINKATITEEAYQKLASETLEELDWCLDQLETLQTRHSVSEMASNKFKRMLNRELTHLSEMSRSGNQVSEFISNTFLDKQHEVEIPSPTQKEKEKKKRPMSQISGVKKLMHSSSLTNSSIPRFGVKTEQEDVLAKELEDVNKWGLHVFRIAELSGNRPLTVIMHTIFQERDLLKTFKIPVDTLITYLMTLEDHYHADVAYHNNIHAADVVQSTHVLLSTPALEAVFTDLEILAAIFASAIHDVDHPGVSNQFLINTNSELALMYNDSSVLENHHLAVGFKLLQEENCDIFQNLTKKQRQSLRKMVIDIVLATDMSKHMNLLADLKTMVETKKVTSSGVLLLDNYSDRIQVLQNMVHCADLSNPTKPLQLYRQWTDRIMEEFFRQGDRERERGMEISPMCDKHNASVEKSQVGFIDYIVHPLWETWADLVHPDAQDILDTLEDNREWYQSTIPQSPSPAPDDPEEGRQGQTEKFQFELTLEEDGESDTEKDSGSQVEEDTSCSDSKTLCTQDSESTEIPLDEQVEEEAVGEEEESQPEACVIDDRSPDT

[7] = biological target: T5, cGMP-specific 3',5'-cyclic phosphodiesterase (Homo sapiens, UniProt O76074); test: Inhibition of human PDE5A at 10^4 nM using FAM-3',5'-cAMP as substrate after 1 hr by fluorescence polarization assay relative to control
[8] = biological target: T6, 3',5'-cyclic-AMP phosphodiesterase 4B (Homo sapiens, UniProt Q07343); test: Inhibition of full length human PDE4B1 using FAM-3',5'-cAMP as substrate after 1 hr by fluorescence polarization assay
[9] = system: BV-2; test: Antineuroinflammatory activity in mouse BV2 cells assessed as inhibition of LPS-induced TNFalpha production; type: functional, cell-based
[10] = biological target: T7, High affinity 3',5'-cyclic-AMP phosphodiesterase 7A (Homo sapiens, UniProt Q13946); test: Inhibition of human PDE7A using FAM-3',5'-cAMP as substrate after 1 hr by fluorescence polarization assay
[11] = biological target: T6, 3',5'-cyclic-AMP phosphodiesterase 4B; test: Inhibition of full length human PDE4B1 at 10^4 nM using FAM-3',5'-cAMP as substrate after 1 hr by fluorescence polarization assay relative to control
[12] = biological target: T8, Dual 3',5'-cyclic-AMP and -GMP phosphodiesterase 11A (Homo sapiens, UniProt Q9HCR9); test: Inhibition of human PDE11A at 10^4 nM using FAM-3',5'-cAMP as substrate after 1 hr by fluorescence polarization assay relative to control
Target sequence in this assay (Q9HCR9 whole entry, looked up): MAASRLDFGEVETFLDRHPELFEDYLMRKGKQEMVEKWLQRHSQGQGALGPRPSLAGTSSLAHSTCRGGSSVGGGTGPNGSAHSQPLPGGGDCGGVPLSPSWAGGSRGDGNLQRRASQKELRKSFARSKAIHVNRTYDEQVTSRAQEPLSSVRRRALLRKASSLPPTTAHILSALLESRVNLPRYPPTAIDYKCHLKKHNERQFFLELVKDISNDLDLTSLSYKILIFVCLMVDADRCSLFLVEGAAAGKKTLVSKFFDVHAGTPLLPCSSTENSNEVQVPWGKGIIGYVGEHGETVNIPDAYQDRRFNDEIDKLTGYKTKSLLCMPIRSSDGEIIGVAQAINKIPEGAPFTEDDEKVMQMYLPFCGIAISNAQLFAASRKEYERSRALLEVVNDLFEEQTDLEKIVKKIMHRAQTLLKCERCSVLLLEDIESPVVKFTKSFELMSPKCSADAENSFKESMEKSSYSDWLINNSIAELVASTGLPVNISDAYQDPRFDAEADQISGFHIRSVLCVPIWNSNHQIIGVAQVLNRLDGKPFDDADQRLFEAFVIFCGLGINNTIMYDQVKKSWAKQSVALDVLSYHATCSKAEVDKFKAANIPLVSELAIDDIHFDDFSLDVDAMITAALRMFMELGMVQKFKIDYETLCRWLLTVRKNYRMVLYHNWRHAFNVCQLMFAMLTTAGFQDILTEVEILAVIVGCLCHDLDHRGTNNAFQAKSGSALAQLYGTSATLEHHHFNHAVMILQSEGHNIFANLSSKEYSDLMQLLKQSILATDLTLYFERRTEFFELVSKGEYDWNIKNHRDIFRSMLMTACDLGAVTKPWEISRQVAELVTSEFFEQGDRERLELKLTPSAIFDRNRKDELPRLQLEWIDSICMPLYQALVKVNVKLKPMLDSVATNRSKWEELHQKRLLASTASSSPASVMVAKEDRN

[13] = biological target: T9, High affinity cGMP-specific 3',5'-cyclic phosphodiesterase 9A (Homo sapiens, UniProt O76083); test: Inhibition of human PDE9A2 at 10^4 nM using FAM-3',5'-cAMP as substrate after 1 hr by fluorescence polarization assay relative to control
T9 sequence (O76083 whole entry): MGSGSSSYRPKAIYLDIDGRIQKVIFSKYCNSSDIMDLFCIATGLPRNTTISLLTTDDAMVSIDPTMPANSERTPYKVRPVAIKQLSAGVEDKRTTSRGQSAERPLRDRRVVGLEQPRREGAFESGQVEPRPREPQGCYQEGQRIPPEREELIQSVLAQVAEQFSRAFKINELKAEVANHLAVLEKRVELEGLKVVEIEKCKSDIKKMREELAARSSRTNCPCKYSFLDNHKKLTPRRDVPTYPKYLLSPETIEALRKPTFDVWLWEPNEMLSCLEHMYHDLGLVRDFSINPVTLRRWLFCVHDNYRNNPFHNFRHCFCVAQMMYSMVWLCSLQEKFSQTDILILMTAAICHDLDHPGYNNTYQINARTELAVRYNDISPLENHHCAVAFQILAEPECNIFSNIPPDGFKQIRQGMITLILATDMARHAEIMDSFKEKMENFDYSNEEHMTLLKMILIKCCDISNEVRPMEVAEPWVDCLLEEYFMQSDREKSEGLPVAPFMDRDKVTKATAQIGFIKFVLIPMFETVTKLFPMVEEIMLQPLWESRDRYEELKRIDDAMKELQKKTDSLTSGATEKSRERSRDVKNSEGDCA

[14] = biological target: T2, Cone cGMP-specific 3',5'-cyclic phosphodiesterase subunit alpha'; test: Inhibition of human PDE6C at 10^4 nM using FAM-3',5'-cAMP as substrate after 1 hr by fluorescence polarization assay relative to control
[15] = biological target: T5, cGMP-specific 3',5'-cyclic phosphodiesterase; test: Inhibition of human PDE5A using FAM-3',5'-cAMP as substrate after 1 hr by fluorescence polarization assay
[16] = biological target: T10, cGMP-inhibited 3',5'-cyclic phosphodiesterase 3B (Homo sapiens, UniProt Q13370); test: Inhibition of human PDE3B at 10^4 nM using FAM-3',5'-cAMP as substrate after 1 hr by fluorescence polarization assay relative to control
[17] = biological target: T1, 3',5'-cyclic-AMP phosphodiesterase 4C; test: Inhibition of full length human PDE4C1 at 10^4 nM using FAM-3',5'-cAMP as substrate after 1 hr by fluorescence polarization assay relative to control
[18] = biological target: T11, cGMP-dependent 3',5'-cyclic phosphodiesterase (Homo sapiens, UniProt O00408); test: Inhibition of human PDE2A at 10^4 nM using FAM-3',5'-cAMP as substrate after 1 hr by fluorescence polarization assay relative to control
T11 sequence (O00408 whole entry): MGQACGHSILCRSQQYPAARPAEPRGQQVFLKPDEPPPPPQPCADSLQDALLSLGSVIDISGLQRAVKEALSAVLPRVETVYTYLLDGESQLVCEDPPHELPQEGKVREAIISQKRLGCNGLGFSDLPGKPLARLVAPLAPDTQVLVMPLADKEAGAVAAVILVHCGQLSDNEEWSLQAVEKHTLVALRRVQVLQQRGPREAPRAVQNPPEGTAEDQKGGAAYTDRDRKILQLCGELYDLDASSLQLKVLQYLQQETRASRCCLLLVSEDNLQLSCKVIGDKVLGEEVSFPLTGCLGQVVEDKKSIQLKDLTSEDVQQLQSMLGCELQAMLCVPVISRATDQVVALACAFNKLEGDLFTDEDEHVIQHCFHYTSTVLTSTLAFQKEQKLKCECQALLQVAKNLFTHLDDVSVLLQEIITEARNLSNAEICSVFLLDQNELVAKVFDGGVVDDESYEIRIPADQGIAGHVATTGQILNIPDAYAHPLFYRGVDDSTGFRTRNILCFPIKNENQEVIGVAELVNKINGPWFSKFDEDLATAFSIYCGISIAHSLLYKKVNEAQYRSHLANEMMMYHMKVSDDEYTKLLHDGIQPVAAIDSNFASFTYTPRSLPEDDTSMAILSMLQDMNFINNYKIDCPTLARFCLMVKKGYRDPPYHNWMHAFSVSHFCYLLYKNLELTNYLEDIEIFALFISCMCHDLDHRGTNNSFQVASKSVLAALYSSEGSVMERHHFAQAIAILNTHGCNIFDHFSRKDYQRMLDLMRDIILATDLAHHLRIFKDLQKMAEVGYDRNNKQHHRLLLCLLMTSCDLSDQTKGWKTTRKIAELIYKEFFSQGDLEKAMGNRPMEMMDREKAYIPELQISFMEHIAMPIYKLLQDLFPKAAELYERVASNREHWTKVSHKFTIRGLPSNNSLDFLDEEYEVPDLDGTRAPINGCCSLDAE

[19] = biological target: T12, cAMP and cAMP-inhibited cGMP 3',5'-cyclic phosphodiesterase 10A (Homo sapiens, UniProt Q9Y233); test: Inhibition of human PDE10A2 using FAM-3',5'-cAMP as substrate after 1 hr by fluorescence polarization assay
T12 sequence (Q9Y233 whole entry): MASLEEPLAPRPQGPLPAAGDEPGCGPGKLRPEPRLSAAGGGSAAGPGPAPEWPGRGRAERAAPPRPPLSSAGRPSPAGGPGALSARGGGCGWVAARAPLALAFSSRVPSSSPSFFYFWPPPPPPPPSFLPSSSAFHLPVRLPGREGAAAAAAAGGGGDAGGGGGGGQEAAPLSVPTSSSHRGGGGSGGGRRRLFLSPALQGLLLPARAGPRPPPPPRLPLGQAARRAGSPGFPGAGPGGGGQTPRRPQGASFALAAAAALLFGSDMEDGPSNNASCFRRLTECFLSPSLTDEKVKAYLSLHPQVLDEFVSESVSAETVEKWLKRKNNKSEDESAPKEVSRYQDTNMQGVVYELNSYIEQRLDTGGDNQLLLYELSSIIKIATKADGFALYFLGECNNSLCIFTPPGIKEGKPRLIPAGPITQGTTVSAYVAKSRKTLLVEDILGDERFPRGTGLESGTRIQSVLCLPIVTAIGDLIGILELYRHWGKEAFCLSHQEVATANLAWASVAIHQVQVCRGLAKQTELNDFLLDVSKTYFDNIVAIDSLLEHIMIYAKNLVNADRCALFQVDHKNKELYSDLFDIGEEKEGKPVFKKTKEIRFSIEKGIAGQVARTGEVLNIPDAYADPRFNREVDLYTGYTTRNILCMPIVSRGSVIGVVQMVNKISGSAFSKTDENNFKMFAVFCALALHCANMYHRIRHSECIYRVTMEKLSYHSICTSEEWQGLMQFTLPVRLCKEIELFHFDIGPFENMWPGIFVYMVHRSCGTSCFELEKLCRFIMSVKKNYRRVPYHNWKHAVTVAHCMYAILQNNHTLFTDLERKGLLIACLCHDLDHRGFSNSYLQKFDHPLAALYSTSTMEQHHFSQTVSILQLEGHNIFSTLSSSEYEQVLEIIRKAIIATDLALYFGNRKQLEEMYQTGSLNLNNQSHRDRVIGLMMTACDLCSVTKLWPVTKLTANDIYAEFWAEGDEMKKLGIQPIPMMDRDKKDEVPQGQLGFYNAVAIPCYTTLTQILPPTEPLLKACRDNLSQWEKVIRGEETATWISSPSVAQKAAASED

[20] = biological target: T4, 3',5'-cyclic-AMP phosphodiesterase 4D; test: Inhibition of full length human PDE4D7 using FAM-3',5'-cAMP as substrate after 1 hr by fluorescence polarization assay
[21] = biological target: T9, High affinity cGMP-specific 3',5'-cyclic phosphodiesterase 9A; test: Inhibition of human PDE9A2 using FAM-3',5'-cAMP as substrate after 1 hr by fluorescence polarization assay
[22] = biological target: T10, cGMP-inhibited 3',5'-cyclic phosphodiesterase 3B; test: Inhibition of human PDE3B using FAM-3',5'-cAMP as substrate after 1 hr by fluorescence polarization assay
[23] = biological target: T11, cGMP-dependent 3',5'-cyclic phosphodiesterase; test: Inhibition of human PDE2A using FAM-3',5'-cAMP as substrate after 1 hr by fluorescence polarization assay
[24] = biological target: T13, 3',5'-cyclic-AMP phosphodiesterase 4A (Homo sapiens, UniProt P27815); test: Inhibition of full length human PDE4A4 at 10^4 nM using FAM-3',5'-cAMP as substrate after 1 hr by fluorescence polarization assay relative to control
[25] = biological target: T12, cAMP and cAMP-inhibited cGMP 3',5'-cyclic phosphodiesterase 10A; test: Inhibition of human PDE10A2 at 10^4 nM using FAM-3',5'-cAMP as substrate after 1 hr by fluorescence polarization assay relative to control
[26] = biological target: T14, High affinity cAMP-specific and IBMX-insensitive 3',5'-cyclic phosphodiesterase 8A (Homo sapiens, UniProt O60658); test: Inhibition of human PDE8A1 at 10^4 nM using FAM-3',5'-cAMP as substrate after 1 hr by fluorescence polarization assay relative to control
[27] = biological target: T3, Dual specificity calcium/calmodulin-dependent 3',5'-cyclic nucleotide phosphodiesterase 1A; test: Inhibition of human PDE1A at 10^4 nM using FAM-3',5'-cAMP as substrate after 1 hr by fluorescence polarization assay relative to control
[28] = biological target: T7, High affinity 3',5'-cyclic-AMP phosphodiesterase 7A; test: Inhibition of human PDE7A at 10^4 nM using FAM-3',5'-cAMP as substrate after 1 hr by fluorescence polarization assay relative to control
[29] = biological target: T8, Dual 3',5'-cyclic-AMP and -GMP phosphodiesterase 11A; test: Inhibition of human PDE11A using FAM-3',5'-cAMP as substrate after 1 hr by fluorescence polarization assay
Target sequence in this assay (Q9HCR9 whole entry): as the sequence (Q9HCR9 whole entry, looked up) above

[30] = biological target: T14, High affinity cAMP-specific and IBMX-insensitive 3',5'-cyclic phosphodiesterase 8A; test: Inhibition of human PDE8A1 using FAM-3',5'-cAMP as substrate after 1 hr by fluorescence polarization assay
[31] = biological target: T13, 3',5'-cyclic-AMP phosphodiesterase 4A; test: Inhibition of full length human PDE4A4 using FAM-3',5'-cAMP as substrate after 1 hr by fluorescence polarization assay

SMILES | IC50 [1] [nM] | Ratio IC50 [2] | IC50 [3] [nM] | IC50 [4] [nM] | IC50 [5] [nM] | inhibition [6] [%] | inhibition [7] [%] | IC50 [8] [nM] | IC50 [10] [nM] | inhibition [11] [%] | inhibition [12] [%] | inhibition [13] [%] | inhibition [14] [%] | IC50 [15] [nM] | inhibition [16] [%] | inhibition [17] [%] | inhibition [18] [%] | IC50 [19] [nM] | IC50 [20] [nM] | IC50 [21] [nM] | also measured
COc1ccc(C(=O)N(C)c2ccccn2)cc1OCC1CC1 | 25100 |  |  |  |  |  |  |  |  |  |  |  |  |  |  |  |  |  |  |  | 
COc1ccc(C2CNC(=O)C2)cc1OC1CCCC1 (configuration not stated) [ROLIPRAM] | 550 |  |  |  |  |  |  |  |  |  |  |  |  |  |  |  |  |  |  |  | 
O=C(Nc1ccccc1)c1ccc(OC(F)F)c(OCC2CC2)c1 | 220 | < 18 |  |  |  |  |  |  |  |  |  |  |  |  |  |  |  |  |  |  | 
O=C(Nc1ccccc1)c1ccc(OC(F)F)c(OC2CCCC2)c1 | 240 | < 18 |  |  |  |  |  |  |  |  |  |  |  |  |  |  |  |  |  |  | 
O=C(Nc1ccccc1Cl)c1ccc(OC(F)F)c(OCC2CC2)c1 | 90 | < 18 | 501 | > 100000 | > 100000 | 99 | 12 | 166 | > 100000 | 98 | 5 | 3 | 2 | > 100000 | 13 | 96 | 8 | > 100000 | 39 | > 100000 | inhibition [9]: Dose-dependent effect; IC50 [22]: > 100000 nM; IC50 [23]: > 100000 nM; inhibition [24]: 100%; inhibition [25]: 3%; inhibition [26]: 3%; inhibition [27]: 6%; inhibition [28]: 7%; IC50 [29]: > 100000 nM; IC50 [30]: > 100000 nM; IC50 [31]: 126 nM
COc1ccc(C(=O)Nc2cccnc2)cc1OC1CCCC1 | 310 | < 18 |  |  |  |  |  |  |  |  |  |  |  |  |  |  |  |  |  |  | 
O=C(Nc1cccnc1)c1ccc(OC(F)F)c(OC2CCCC2)c1 | 140 | < 18 | 294 | > 100000 | > 100000 | 99 | 12 | 39 | > 100000 | 99 | 76 | 4 | 16 | > 100000 | 6 | 98 | 26 | > 100000 | 68 | > 100000 | IC50 [22]: > 100000 nM; IC50 [23]: > 100000 nM; inhibition [24]: 98%; inhibition [25]: 9%; inhibition [26]: 9%; inhibition [27]: 0%; inhibition [28]: 3%; IC50 [30]: > 100000 nM; IC50 [31]: 117 nM
CN(C(=O)c1ccc(OC(F)F)c(OC2CCCC2)c1)c1ccccn1 | 1400 |  |  |  |  |  |  |  |  |  |  |  |  |  |  |  |  |  |  |  | 
CN(C(=O)c1ccc(OC(F)F)c(OCC2CC2)c1)c1ccccn1 | 2500 |  |  |  |  |  |  |  |  |  |  |  |  |  |  |  |  |  |  |  | 
O=C(Nc1cccnc1)c1ccc(OC(F)F)c(OCC2CC2)c1 | 69 | < 18 | 269 | > 100000 | > 100000 | 100 | 23 | 34 | > 100000 | 99 | 85 | 8 | 28 | > 100000 | 6 | 98 | 23 | > 100000 | 71 | > 100000 | IC50 [22]: > 100000 nM; IC50 [23]: > 100000 nM; inhibition [24]: 98%; inhibition [25]: 14%; inhibition [26]: 22%; inhibition [27]: 20%; inhibition [28]: 7%; IC50 [30]: > 100000 nM; IC50 [31]: 76 nM
COc1ccc(C(=O)N(C)c2ccccn2)cc1OC1CCCC1 | 9700 |  |  |  |  |  |  |  |  |  |  |  |  |  |  |  |  |  |  |  | 
COc1ccc(C(=O)Nc2cccnc2)cc1OCC1CC1 | 360 | < 18 |  |  |  |  |  |  |  |  |  |  |  |  |  |  |  |  |  |  | 
O=C(Nc1ccccc1Cl)c1ccc(OC(F)F)c(OC2CCCC2)c1 | 30 | < 18 | 400 | > 100000 | > 100000 | 99 | 7 | 144 | > 100000 | 100 | 7 | 6 | 2 | > 100000 | 6 | 97 | 28 | > 100000 | 22 | > 100000 | IC50 [22]: > 100000 nM; IC50 [23]: > 100000 nM; inhibition [24]: 98%; inhibition [25]: 6%; inhibition [26]: 10%; inhibition [27]: 3%; inhibition [28]: 3%; IC50 [29]: > 100000 nM; IC50 [30]: > 100000 nM; IC50 [31]: 95 nM
